Measurements published in patent US11654119B2, “Bioavailable curcumin nanoparticles and methods of making” (NUtech Ventures, priority 2018, dated 2023).

Tests used:
[1] = in humans; cited from earlier work
[2] = Solubility of curcumin in ethanol; assay type: physicochemical
Method: Impregnation of curcumin was conducted during the solvent exchange step. Excess curcumin was mixed with ethanol at room temperature (21° C.) and the undissolved curcumin was removed by filtration through a 0.45 μm pore-size filter. […] Afterwards, curcumin impregnated alcogels were dried using the same SC-CO2 drying conditions. Moreover, curcumin impregnation was investigated at 60° C., where higher solubility of curcumin in ethanol was obtained. Curcumin impregnated NSAs were called CUR-NSA-60° C. or CUR-NSA-RT depending on the impregnation temperature of 60° C. or room temperature (RT), respectively. Curcumin impregnated NSAs were stored in the freezer at −18° C. until characterized.
Impregnation capacity of the Curcumin-NSA-RT, where impregnation was performed at room temperature (21° C.), was 14.4 mg curcumin/g NSA (FIG. 5). When temperature of the impregnation increased to 60° C. […] Impregnation capacity was basically based on the solubility of curcumin in ethanol. […] The reason for a drastic increase in the impregnation capacity at 60° C. was the crystallization of curcumin in the saturated ethanolic curcumin solution on the surface of the NSA due to temperature drop to 40° C. during SC-CO2 drying. Crystallization from ethanol before the supercritical conditions reached led to the formation of long curcumin crystals (data not shown) which impacted the bioaccessibility of curcumin after simulated digestion (FIG. 10).

[3] = Simulated gastrointestinal digestion (oral, gastric, intestinal); bioaccessible fraction; assay type: in vitro ADME; settings: after simulated digestion
Method: Gastrointestinal digestion of the samples was simulated adopting the method described by Minekus et al., 2014, Food & Function, 5(6), 1113-1124. Gastrointestinal digestion consisted of a sequential oral, gastric and intestinal digestion. Simulated salivary fluid (SSF), simulated gastric fluid (SGF) and simulated intestinal fluid (SIF) were prepared using a method reported previously (Minekus et al., 2014). […] The experiments were performed in 50 mL Erlenmeyer flasks. All digestion experiments were carried out in triplicate.
First, the sample (0.25 g) and SSF electrolyte stock solution (3.5 mL) were added into the flask. Then, 0.5 mL of α-amylase solution (750 U/mL) was included to have a final mixture with 75 U/mL. Subsequently, 25 μL of 0.3 M CaCl2 and 0.975 mL of deionized water were added. Finally, pH of the mixture was adjusted to pH 7.0 and the mixture was agitated in a shaking water bath (Precision SWB 27, Thermo Fisher Scientific, NH, USA) for 30 sec at 37° C. with a mixing rate of 150 rpm (Mennah-Govela & Bornhorst, 2016; Minekus et al., 2014).
After the oral digestion, oral bolus (5 mL) was mixed with SGF electrolyte stock solution (3.25 mL, pH 3.0) and the pH was adjusted to 3.0 using 1 M HCl (75 μL). […] The pH of the mixture was monitored and kept at pH 3.0 using 1 M HCl. […]

[4] = Plasma CUR concentration over time after administration (bioavailability in rats); assay type: in vivo; settings: rat, 0-90 minutes after administration, read-out: maximum concentration of CUR in the plasma (Cmax)
Source text: FIG. 12 depicts the bioavailability of curcumin (CUR) impregnated in the nanoporous starch aerogels in rats as analyzed in Example 2.
The plasma CUR concentration was monitored over time after administration.

[5] = 10 MPa and 40° C.; cited from earlier work

For `COc1cc(/C=C/C(=O)CC(=O)/C=C/c2ccc(O)c(OC)c2)ccc1O` [crude curcumin, Curcumin (diferuloylmethane)], the bioavailability [1] is given as about 1%, the “increase in the solubility of curcumin in ethanol” value ([2]; 21 to 60° C.) is given as 3.9 fold and the “solubility of curcumin in ethanol” value ([2]; 21° C.) is given as 4.4±0.2 mg curcumin/mL ethanol. For the same compound, the “solubility of curcumin in ethanol” value ([2]; 60° C.) was 17.2±0.3 mg curcumin/mL ethanol, the “concentration of curcumin in the bioaccessible fraction” value [3] was 3000 ng/mL and the Cmax [4] was 500 nM. The “solubility of curcumin in SC-CO2” value [5] was about 0.4 ng/mL.
